Measured values published in PMC11243693, “Synthesis and Biological Evaluation of New Compounds with Nitroimidazole Moiety” (Molecules, 2024).
In brackets after ≈: the same amount, converted by molar mass. One block for each compound: values may come before it.

How the values were obtained:
[1] = tested on: Candida krusei ATCC 14243; assay: Broth microdilution, C. krusei ATCC 14243; type: cell-based; conditions: Ck 14243
Experimental: (§1) The antibacterial activity of the obtained thiosemicarbazides and hydrazide–hydrazones was determined by evaluating their ability to inhibit microbial growth in vitro using the broth microdilution method, according to the guidelines of the European Committee on Antimicrobial Susceptibility Testing (EUCAST). The method involved the preparation of microbial suspensions with a standardized density of 0.5 on the McFarland scale (equivalent to 1.5 × 10^8 colony-forming units/mL for bacteria and […] for fungi). A solution of the test substances was then prepared (initial concentration 1000 µg/mL, diluted in sterile Mueller-Hinton broth for bacteria or Mueller-Hinton with 2% glucose for fungi). The test was carried out in 96-well polystyrene flat-bottom plates (Medlab, Poland) with 100 µL of appropriate sterile microbiological medium in each well. The first wells were filled with 200 µL of the test substance, diluted to the initial concentration, and then double-decreasing dilutions were made under aseptic conditions using an automatic pipette. The final step was the addition of a 10-fold diluted microbial suspension of 2 µL. At the same time, the following controls were included: (a) medium control (100 µL of sterile medium without microorganisms added), (b) microbial viability control, (c) test substance control (dilutions without added micro-organisms), (d) positive control of the drug used in the clinic. The plates thus prepared were incubated for 18 ± 2 h at 35 ± 2 °C under conditions optimal for the growth of the test microorganisms. After incubation, the spectrophotometric absorbance at 570 nm in each well of the plate was read. The aim of this part of the study was to determine two parameters: the minimum inhibitory concentration (MIC) and the minimum bactericidal or fungicidal concentration (MBC/MFC) of the test compound. […] The MBC value was determined by adding 5 µL of the contents of each well of the plate to solid sterile MHA or MHA + 2%glc medium for bacteria and fungi, respectively. The area on the plate where 99.9% inhibition of microbial growth was observed indicated the lethal concentration. In addition, the quotient MBC(MFC)/MIC could be determined to assess the nature of the activity of the test substance. If MBC(MFC)/MIC was <4, the test substance was bactericidal/fungicidal, whereas if MBC(MFC)/MIC was ≥4, it was bacteriostatic/fungistatic. Amoxicillin (Glentham Life Sciences, USA) and nystatin (Glentham Life Sciences, USA) were used as the controls for this assay.
(§2) The test was performed either on bacteria, comprising: Gram-positive (Staphylococcus aureus ATCC 25923, Staphylococcus aureus ATCC 6538, Staphylococcus aureus ATCC 43300 methicillin-resistant MRSA, Staphylococcus epidermidis ATCC 12228, Micrococcus luteus ATCC 10240, Bacillus subtilis ATCC 6633, Bacillus cereus ATCC 10876) and Gram-negative (Escherichia coli ATCC 25922, Pseudomonas aeruginosa ATCC 27853, Proteus mirabilis ATCC 12453, Klebsiella pneumoniae ATCC 13883) or yeast (Candida parapsilosis ATCC 22019, Candida glabrata ATCC 90030, Candida krusei ATCC 14243, Candida glabrata ATCC 15126, Candida tropicalis ATCC 1369, Candida auris CDC B11903, Candida lusitaniae ATCC 3449) reference strains from the American Type Culture Collection (ATCC) or the Centers for Disease Control and Prevention (CDC).

[2] = tested on: Staphylococcus aureus ATCC 25923; assay: Broth microdilution, S. aureus ATCC 25923; type: cell-based; conditions: Sa 25923
Experimental: as §1, §2

[3] = tested on: Micrococcus luteus ATCC 10240; assay: Broth microdilution, M. luteus ATCC 10240; type: cell-based; conditions: Ml 10240; for MBC/MIC Ratio: <4 bactericidal, ≥4 bacteriostatic
Experimental: as §1, §2

[4] = tested on: Staphylococcus aureus ATCC 43300 methicillin-resistant MRSA; assay: Broth microdilution, S. aureus ATCC 43300 MRSA; type: cell-based; conditions: Sa 43300 MRSA
Experimental: as §1, §2

[5] = tested on: Candida parapsilosis ATCC 22019; assay: Broth microdilution, C. parapsilosis ATCC 22019; type: cell-based; conditions: Cp 22019
Experimental: as §1, §2

[6] = tested on: Candida auris CDC B11903; assay: Broth microdilution, C. auris CDC B11903; type: cell-based; conditions: Ca B11903
Experimental: as §1, §2

[7] = tested on: Bacillus subtilis ATCC 6633; assay: Broth microdilution, B. subtilis ATCC 6633; type: cell-based; conditions: Bs 6633; for MBC/MIC Ratio: <4 bactericidal, ≥4 bacteriostatic
Experimental: as §1, §2

[8] = tested on: Staphylococcus epidermidis ATCC 12228; assay: Broth microdilution, S. epidermidis ATCC 12228; type: cell-based; conditions: Se 12228; for MBC/MIC Ratio: <4 bactericidal, ≥4 bacteriostatic
Experimental: as §1, §2

[9] = tested on: Candida glabrata ATCC 90030; assay: Broth microdilution, C. glabrata ATCC 90030; type: cell-based; conditions: Cg 90030
Experimental: as §1, §2

[10] = tested on: Candida glabrata ATCC 15126; assay: Broth microdilution, C. glabrata ATCC 15126; type: cell-based; conditions: Cg 15126
Experimental: as §1, §2

[11] = tested on: Candida tropicalis ATCC 1369; assay: Broth microdilution, C. tropicalis ATCC 1369; type: cell-based; conditions: Ct 1369
Experimental: as §1, §2

[12] = tested on: Staphylococcus aureus ATCC 6538; assay: Broth microdilution, S. aureus ATCC 6538; type: cell-based; conditions: Sa 6538
Experimental: as §1, §2

[13] = tested on: Candida lusitaniae ATCC 3449; assay: Broth microdilution, C. lusitaniae ATCC 3449; type: cell-based; conditions: Cl 3449
Experimental: as §1, §2

[14] = tested on: Bacillus cereus ATCC 10876; assay: Broth microdilution, B. cereus ATCC 10876; type: cell-based; conditions: Bc 10876; for MBC/MIC Ratio: <4 bactericidal, ≥4 bacteriostatic
Experimental: as §1, §2

Structure (SMILES): Cn1cc([N+](=O)[O-])nc1C(=O)NN=Cc1cccc(Cl)c1 [Compound 21, N’-[(3-chlorophenyl)methylidene]-1-methyl-4-nitro-1H-imidazole-2-carbohydrazide]
melting point: 276 to 278 °C

Structure (SMILES): Cn1cc([N+](=O)[O-])nc1C(=O)NN=Cc1cccc(Cl)c1F [Compound 28, N’-[(3-chloro-2-fluorophenyl)methylidene]-1-methyl-4-nitro-1H-imidazole-2-carbohydrazide]
melting point: 252 to 255 °C

Structure (SMILES): Cn1cc([N+](=O)[O-])nc1C(=O)NN=Cc1cccc(O)c1 [Compound 27, N’-[(3-hydroxyphenyl)methylidene]-1-methyl-4-nitro-1H-imidazole-2-carbohydrazide]
melting point: 208 to 210 °C

Structure (SMILES): COc1cccc(C=NNC(=O)c2nc([N+](=O)[O-])cn2C)c1 [Compound 24, N’-[(3-methoxyphenyl)methylidene]-1-methyl-4-nitro-1H-imidazole-2-carbohydrazide]
melting point: 208 to 210 °C

Structure (SMILES): COc1ccc(C=NNC(=O)c2nc([N+](=O)[O-])cn2C)cc1 [Compound 25, N’-[(4-methoxyphenyl)methylidene]-1-methyl-4-nitro-1H-imidazole-2-carbohydrazide]
melting point: 224 to 226 °C

Structure (SMILES): Cn1cc([N+](=O)[O-])nc1C(=O)NNC(=S)Nc1ccccc1F [Compound 6]
MIC [1]: >1000 µg/mL
MBC [2]: >1000 µg/mL
MIC [2]: 250 µg/mL (≈ 739 µM)
MBC [3]: 250 µg/mL (≈ 739 µM)
MIC [3]: 250 µg/mL (≈ 739 µM)
MBC/MIC Ratio [3]: 1
MBC [4]: >1000 µg/mL
MIC [4]: 1000 µg/mL (≈ 2960 µM)
MFC [5]: >1000 µg/mL
MIC [5]: 1000 µg/mL (≈ 2960 µM)
MIC [6]: >1000 µg/mL
MBC [7]: 500 µg/mL (≈ 1480 µM)
MIC [7]: 250 µg/mL (≈ 739 µM)
MBC/MIC Ratio [7]: 2
MBC [8]: 500 µg/mL (≈ 1480 µM)
MIC [8]: 500 µg/mL (≈ 1480 µM)
MBC/MIC Ratio [8]: 1
MIC [9]: >1000 µg/mL
MIC [10]: >1000 µg/mL
MFC [11]: >1000 µg/mL
MIC [11]: 250 µg/mL (≈ 739 µM)
MBC [12]: >1000 µg/mL
MIC [12]: 1000 µg/mL (≈ 2960 µM)
MIC [13]: >1000 µg/mL
MBC [14]: 1000 µg/mL (≈ 2960 µM)
MIC [14]: 500 µg/mL (≈ 1480 µM)
MBC/MIC Ratio [14]: 2

Structure (SMILES): Cn1cc([N+](=O)[O-])nc1C(=O)NNC(=S)Nc1ccccc1 [Compound 2]
MIC [1]: >1000 µg/mL
MBC [2]: >1000 µg/mL
MIC [2]: 500 µg/mL (≈ 1560 µM)
MBC [3]: 1000 µg/mL (≈ 3120 µM)
MIC [3]: 1000 µg/mL (≈ 3120 µM)
MBC/MIC Ratio [3]: 1
MIC [4]: >1000 µg/mL
MFC [5]: >1000 µg/mL
MIC [5]: 500 µg/mL (≈ 1560 µM)
MIC [6]: >1000 µg/mL
MBC [7]: >1000 µg/mL
MIC [7]: 1000 µg/mL (≈ 3120 µM)
MBC [8]: 1000 µg/mL (≈ 3120 µM)
MIC [8]: 1000 µg/mL (≈ 3120 µM)
MBC/MIC Ratio [8]: 1
MIC [9]: >1000 µg/mL
MIC [10]: >1000 µg/mL
MFC [11]: >1000 µg/mL
MIC [11]: 500 µg/mL (≈ 1560 µM)
MBC [12]: >1000 µg/mL
MIC [12]: 1000 µg/mL (≈ 3120 µM)
MIC [13]: >1000 µg/mL
MIC [14]: >1000 µg/mL

Structure (SMILES): Cn1cc([N+](=O)[O-])nc1C(=O)NN=Cc1ccccc1 [Compound 19, 1-methyl-4-nitro-N’-(phenylmethylidene)-1H-imidazole-2-carbohydrazide]
melting point: 280 to 284 °C

Structure (SMILES): COc1ccccc1C=NNC(=O)c1nc([N+](=O)[O-])cn1C [Compound 23, N’-[(2-methoxyphenyl)methylidene]-1-methyl-4-nitro-1H-imidazole-2-carbohydrazide]
melting point: 205 to 208 °C

The next lines start with results.

melting point: 214 to 217 °C
Structure (SMILES): Cn1cc([N+](=O)[O-])nc1C(=O)NN=Cc1ccccc1F [Compound 22, N’-[(2-fluorophenyl)methylidene]-1-methyl-4-nitro-1H-imidazole-2-carbohydrazide]

MIC [1]: >1000 µg/mL
MIC [2]: 250 µg/mL (≈ 739 µM)
MIC [3]: 250 µg/mL (≈ 739 µM)
MIC [4]: 1000 µg/mL (≈ 2960 µM)
MIC [5]: 1000 µg/mL (≈ 2960 µM)
MIC [6]: >1000 µg/mL
MIC [7]: 250 µg/mL (≈ 739 µM)
MIC [8]: 500 µg/mL (≈ 1480 µM)
MIC [9]: >1000 µg/mL
MIC [10]: >1000 µg/mL
MIC [11]: 250 µg/mL (≈ 739 µM)
MIC [12]: >1000 µg/mL
MIC [13]: >1000 µg/mL
MIC [14]: 500 µg/mL (≈ 1480 µM)
Structure (SMILES): Cn1cc([N+](=O)[O-])nc1C(=O)NNC(=S)Nc1ccc(F)cc1 [Compound 8]
MBC [2]: >1000 µg/mL
MBC [3]: 500 µg/mL (≈ 1480 µM)
MBC/MIC Ratio [3]: 2
MBC [4]: >1000 µg/mL
MFC [5]: >1000 µg/mL
MBC [7]: 250 µg/mL (≈ 739 µM)
MBC/MIC Ratio [7]: 1
MBC [8]: 500 µg/mL (≈ 1480 µM)
MBC/MIC Ratio [8]: 1
MFC [11]: >1000 µg/mL
MBC [14]: 1000 µg/mL (≈ 2960 µM)
MBC/MIC Ratio [14]: 2

MIC [1]: >1000 µg/mL
MIC [2]: 500 µg/mL (≈ 1500 µM)
MIC [3]: 500 µg/mL (≈ 1500 µM)
MIC [4]: 250 µg/mL (≈ 748 µM)
MIC [5]: >1000 µg/mL
MIC [6]: >1000 µg/mL
MIC [7]: 1000 µg/mL (≈ 2990 µM)
MIC [8]: 500 µg/mL (≈ 1500 µM)
MIC [9]: >1000 µg/mL
MIC [10]: >1000 µg/mL
MIC [11]: 500 µg/mL (≈ 1500 µM)
MIC [12]: 250 µg/mL (≈ 748 µM)
MIC [13]: >1000 µg/mL
MIC [14]: 500 µg/mL (≈ 1500 µM)
Structure (SMILES): Cc1ccccc1NC(=S)NNC(=O)c1nc([N+](=O)[O-])cn1C [Compound 15]
MBC [2]: >1000 µg/mL
MBC [3]: 500 µg/mL (≈ 1500 µM)
MBC/MIC Ratio [3]: 1
MBC [4]: >1000 µg/mL
MBC [7]: 1000 µg/mL (≈ 2990 µM)
MBC/MIC Ratio [7]: 1
MBC [8]: 500 µg/mL (≈ 1500 µM)
MBC/MIC Ratio [8]: 1
MFC [11]: >1000 µg/mL
MBC [12]: >1000 µg/mL
MBC [14]: 500 µg/mL (≈ 1500 µM)
MBC/MIC Ratio [14]: 1

melting point: 208 to 210 °C
Structure (SMILES): Cn1cc([N+](=O)[O-])nc1C(=O)NN=Cc1ccc(C(F)(F)F)cc1 [Compound 26, 1-methyl-4-nitro-N’-[(4-trifluoromethylphenyl)methylidene]-1H-imidazole-2-carbohydrazide]

melting point: 234 to 237 °C
Structure (SMILES): COc1cc(Cl)ccc1C=NNC(=O)c1nc([N+](=O)[O-])cn1C [Compound 29, N’-[(4-chloro-2-methoxyphenyl)methylidene]-1-methyl-4-nitro-1H-imidazole-2-carbohydrazide]

melting point: 234 to 236 °C
Structure (SMILES): Cn1cc([N+](=O)[O-])nc1C(=O)NN=Cc1ccccc1Cl [Compound 20, N’-[(2-chlorophenyl)methylidene]-1-methyl-4-nitro-1H-imidazole-2-carbohydrazide]
